Laboratory results as given in PMC12683216, “Using High‐Throughput Screening to Identify Crosslinking Peptides That Control Cell‐Mediated Matrix Degradation” (Advanced Healthcare Materials, 2025).
Where a SMILES comes first, the peptide text is derived from it. [ ]: non-standard residue; d: D form. βAla = NCCC(=O)O

How the values were obtained:
hUVECs = test: Quantification of peptide and hydrogel degradation in cell-laden PEG hydrogels (Cy3/FAM fluorescence); type: in vitro ADME, human
Source text: (§1) Next we designed systems to quantify the amount of crosslinking peptide degradation and bulk hydrogel degradation during culture. We synthesized both the KLVAD‐LM peptide and the PanMMP peptide with an N‐terminal Cy3 and a C‐terminal azide to click into the PEG hydrogel network, and also coupled fluorescein (FAM) to the hydrogel using a non‐degradable linker (Figure 5A). Proteolytic cleavage of the crosslinking peptides will liberate the Cy3 from the PEG hydrogel, and bulk erosion of the hydrogel reduces the amount of PEG and FAM. At desired time points, the gels were completely degraded with trypsin, and the fluorescence intensity of Cy3 and FAM was measured to quantify peptide and hydrogel degradation during culture (Figure 5B).
(§2) Figure 5 The rate of degradation of crosslinking peptides in the hydrogels was quantified using fluorescence. A) A fraction of PEG arms were functionalized with PanMMP and KLVAD‐LM peptides that were labeled with […] on their N‐terminus and conjugated to the PEG hydrogel matrix on their C‐terminus to quantify crosslinker degradation. Fluorescein (FAM) was also conjugated to the hydrogel through non‐degradable linkers to quantify bulk hydrogel degradation. […] The amounts of remaining Cy3 and FAM were quantified using fluorescence spectroscopy. […]

hMSCs = test: as above; type: in vitro ADME, human
Source text: as §1, §2

recombinant MMP‐14 = molecular target: T1, recombinant MMP‐14 (Homo sapiens, UniProt P50281); test: Peptide degradation with added exogenous recombinant MMP-14 (LC-MS); type: in vitro ADME; settings: fresh cell culture media (both hMSC and hUVEC media), no cell contact, recombinant MMP-14 0.5 nM, 24 h, LC-MS
T1 construct: purchased antibodies.com
Method: To verify that MMP‐14 can degrade the KLVAD‐LM and PanMMP peptides, recombinant MMP‐14 was added to the different peptides, both in PBS and in the Cell and Media culture conditions (Figure 7 ). Peptides were incubated under three conditions: in fresh cell culture media (“Blank”), in media with cells present (“Cells”), and in cell‐conditioned media (“Media”). This was done for both hMSCs and hUVECs, and was also done with and without the addition of exogenous MMP.
The extent of peptide degradation was quantified for samples both with and without the addition of exogenous MMP‐14. […] Error bars indicate ± standard deviation, N = 3 with technical triplicates.
hUVECs (75000 per well) or hMSCs (36000 per well) were seeded into a 48 well plate, and 500 µL media was added to the wells. […] The peptide libraries were dissolved at a stock solution of 10 mM total peptide content. For libraries containing 38 peptides, 95 µL of the stock solution was added to each well; for libraries with 19 peptides, 47.5 µL was added to each well, and media was taken at 0 and 24 h. Add 4 µL of acetic acid to all collected media in the LC‐MS plates and store them in a −80 °C freezer to prevent further proteolytic degradation. From each sample, 10 µL of crude solution was introduced by the LC‐MS through a Thermo Scientific Vanquish LC System (Thermo Fisher Scientific), which outputted to a Thermo Scientific LTQ XL Linear Ion Trap Mass Spectrometer (Thermo Fisher Scientific). The sampled mixture was trapped on a column (ProntoSIL C18 AQ, 120 Å, 3 µm, 2.0 x 50 mm HPLC Column, PN 0502F184PS030, MAC‐MOD Analytical Inc.). The samples were loaded onto the column with a solvent containing acetonitrile/water, 5:95 (v/v) containing 1% acetic acid at a flow rate of 300 µL min^−1 and held for 1 min. The sample was then eluted from the column with a linear gradient of 5–40% Solvent B (1% acetic acid in acetonitrile) at the same flow rate for 5 min. This was followed by a 1 min ramp up to 100% Solvent B, where it was re‐equilibrated with Solvent A (1% acetic acid) to 5% solvent B over the course of 1 min and held there for 2 min. The column temperature was kept at a constant 29 °C, and the mass spectrometer was operated in positive ion mode. Using a Heated ESI, the Source Voltage was set to 4.1 kV, and the capillary temperature was 350 °C. For non‐library degradation studies, 2.5 µL of 10 mM peptide stock solution for each peptide was added.
To assess the activity of the conditioned media, the media were divided into two equal portions. One portion was used for a standard degradation study, while the other was cultured for an additional 24 h before the PanMMP and KLVADLMASAE were added. After 24 h of incubation, the media were collected for further analysis. To assess the impact of recombinant MMP‐14 on PanMMP and KLVADLMASAE, recombinant MMP‐14 (antibodies.com) was dissolved in the media at a concentration of 0.5 nM. The remaining steps followed the standard degradation study protocol.
For all degradation studies using soluble peptides, a non‐proteolytically degradable NH2‐βFβAβAβAβAβAβA‐amide (βFβA6) peptide, where βF is β‐phenylalanine and βA is β‐alanine, was added at a 50 µM concentration and used as an internal standard. Peptide degradation ratios were measured by LC‐MS and analyzed by Xcalibur. The relative concentrations of the peptide were calculated by the ratio of the peak area of the peptide and the peak area of βFβA6.

| SMILES | degradation within hydrogels relative to that seen with the PanMMP peptide, hUVECs (hUVECs) | degradation within hydrogels relative to that seen with the PanMMP peptide, hMSCs (hMSCs) | degradation on adding MMP‐14 to the Blank condition (recombinant MMP‐14) |
| --- | --- | --- | --- |
| CSCC[C@H](NC(=O)[C@H](CC(C)C)NC(=O)[C@H](CC(=O)O)NC(=O)[C@H](C)NC(=O)[C@@H](NC(=O)[C@H](CC(C)C)NC(=O)[C@H](CCCCN)NC(=O)CCNC(C)=O)C(C)C)C(=O)N[C@@H](C)C(=O)N[C@@H](CO)C(=O)N[C@@H](C)C(=O)N[C@@H](CCC(=O)O)C(=O)NCCC(N)=O [KLVAD-LM] (Ac-[βAla]KLVADLMASAE[βAla]-NH2) | 40–60% | 40–60% |  |
| CC[C@H](C)[C@H](NC(=O)CNC(=O)[C@H](CCC(N)=O)NC(=O)[C@@H]1CCCN1C(=O)CNC(=O)CCNC(C)=O)C(=O)N[C@@H](Cc1c[nH]c2ccccc12)C(=O)NCC(=O)N[C@@H](CCC(N)=O)C(=O)NCCC(N)=O [PanMMP, reference compound] (Ac-[βAla]GPQGIWGQ[βAla]-NH2) |  |  | 10–20% |
